According to patent US20160060235A1, “Therapeutic Agent for Type 2 Diabetes” (NATIONAL UNIVERSITY CORPORATION KUMAMOTO UNIVERSITY, priority 2013, published 2016):

Assays:
[1] = system: E. coli harboring pACYCDuet-1-Phe; assay: Primary screening: dual luciferase assay of translation accuracy (frameshift mistranslation reporter); format: cell-based; details: versus DMSO control; for relative translation accuracy with the translation accuracy of the control defined as 1: compound at final concentration of 10 μM, shake culture 1 hour; for improvement of translation accuracy as compared with the control (in words): existing therapeutic agents for diabetes, 10 μM
From the text: The vector map of the prepared plasmid pACYCDuet-1-Phe (SEQ ID NO: 1) is shown in the left diagram of FIG. 1. The phenylalanine codon TTT was designed as NNN. When translation takes place according to the normal reading frame, the stop codon TAA appears immediately after TTT so that the sequence is not translated into firefly luciferase. On the other hand, if mistranslation occurs in TTT so as to skip one T, the stop codon is circumvented so that the sequence is correctly translated into firefly luciferase. This means that the higher the accuracy of translation is, the lower the fluorescence intensity of firefly luciferase is.
Renilla luciferase gene is also cloned into this plasmid as a control.
The E. coli harboring pACYCDuet-1-Phe was cultured overnight at 37° C. using 100 mL of a culture medium. After confirmation that OD550 reached 0.4 to 1, 1 mL of the culture medium was dispensed, and each low-molecular compound was added thereto at a final concentration of 10 μM. After shake culture for 1 hour, the E. coli was recovered and lysed by suspension in 10 mM Tris-HCl (pH 7.4), 1 mM magnesium chloride, and 0.1 mg/mL lysozyme (manufactured by Wako Pure Chemical Industries, Ltd.).
The activity of the firefly luciferase and the Renilla luciferase was measured using Dual-Luciferase Reporter Assay System (manufactured by Promega Corp.). To 5 μL of the E. coli lysate, 50 μL of an assay solution for the firefly luciferase was added for the measurement. Then, 50 μL of an assay solution for the Renilla luciferase was added thereto for the measurement. An E. coli lysate supplemented only with DMSO was prepared as a control.
The luminescence intensity of the firefly luciferase was corrected against that of the Renilla luciferase by use of the equation given below. This series of experimental approaches is plotted in FIG. 1.
Relative luminescence intensity=Firefly luciferase/Renilla luciferase
Relative translation accuracy=Relative luminescence intensity (from the addition of only DMSO)/Relative luminescence intensity (in the presence of the compound)

[2] = system: islet of Langerhans isolated from a pancreatic β cell-specific Cdkal1-deficient mouse; assay: Secondary screening: insulin secretion experiment by glucose stimulation; format: cell-based; design: insulin secretion under low-concentration (2.8 mM) and high-concentration (16.7 mM) glucose stimulation / concentration of insulin secreted into the Ringer solution: unit of the concentration uncertain
From the text: The islet of Langerhans was isolated from a pancreatic β cell-specific Cdkal1-deficient mouse (see non-patent document 11) according to the literature (Gotoh M., et al., Transplantation, 1987, 43 (5), p. 725-730). The chest of the mouse was opened under ether anesthesia, and the common bile duct was peeled off. The pancreas swollen by the gradual injection of a collagenase solution (320 U/mL, manufactured by Sigma-Aldrich Corp.) was excised. The pancreas containing collagenase was digested for 30 minutes in a water bath of 37° C. and then dispersed with a pipette. The islet of Langerhans was isolated using a concentration gradient of a Ficoll solution (manufactured by Amersham Pharmacia Biotech Inc.). The islet of Langerhans was incubated for 30 minutes while kept at 37° C. in a Ringer solution (119 mM sodium chloride, 4.74 mM potassium chloride, 1.19 mM monosodium dihydrogen phosphate, 25 mM sodium bicarbonate, 10 mM HEPES, 2.54 mM calcium chloride, 1.19 mM magnesium chloride, and 0.2% BSA) saturated with a mixed gas of 95% O2 and 5% CO2.
Each low-molecular compound found positive in the primary screening was dissolved in DMSO, and this solution was added at a final concentration of 10 mM to a Ringer solution containing glucose to prepare a Ringer solution. A Ringer solution supplemented only with DMSO was prepared as a control.
The isolated mouse islet of Langerhans was first cultured for 30 minutes in a Ringer solution containing a low concentration (2.8 mM) of glucose. Then, the Ringer solution was replaced with a Ringer solution containing the low-molecular compound and the low concentration of glucose. After 30 minutes, the Ringer solution was recovered, and a Ringer solution containing the low-molecular compound and a high concentration (16.7 mM) of glucose was subsequently added thereto. After 30 minutes, the Ringer solution was recovered. The amount of insulin released into the Ringer solution was detected using an insulin detection kit (Libs Insulin-Mouse (S type), manufactured by Shibayagi Co., Ltd) according to the protocol of the kit.

[3] = system: pancreatic β cell-specific Cdkal1-deficient mouse; assay: Glucose tolerance after long-term (14 days) administration; format: in vivo; details: 1 mg/kg transabdominally once a day over 14 days, glucose 1 g/kg 36 hours after last dose; versus DMSO administration group
Protocol: Each low-molecular compound found positive in the screening was transabdominally injected once a day over 14 days at a dose of 1 mg/kg to a pancreatic β cell-specific Cdkal1-deficient mouse. A Cdkal1-deficient mouse was prepared as a control by the injection of saline containing DMSO. Finally, glucose was transabdominally injected at a dose of 1 g/kg to all of the mice 36 hours after the administration of the low-molecular compound. Blood was collected (5 μL) from the tail vein every 15 minutes from immediately after the administration of glucose. The blood glucose level in the mouse blood was measured using Accu-Chek AVIVA Nano (manufactured by F. Hoffmann-La Roche, Ltd.). The statistical test was conducted by repeated measure of two-way ANOVA.

[4] = system: pancreatic β cell-specific Cdkal1-deficient mouse; assay: Tertiary screening: glucose tolerance after single administration; format: in vivo; details: 1 mg/kg transabdominally, glucose 1 g/kg after 30 minutes, versus saline administration group
Protocol: A pancreatic β cell-specific Cdkal1-deficient mouse and a wild-type mouse were each fasted overnight. Then, eperisone was transabdominally injected at a dose of 1 mg/kg to each mouse. Each control individual was prepared by the transabdominal injection of saline to each of a pancreatic β cell-specific Cdkal1-deficient mouse and a wild-type mouse. After 30 minutes, glucose was transabdominally injected at a dose of 1 g/kg to all of these mice. Blood was collected (5 μL) every 15 minutes from immediately after the administration of glucose. The blood glucose level in the mouse blood was measured using Accu-Chek AVIVA Nano (manufactured by F. Hoffmann-La Roche, Ltd.). The statistical test was conducted by repeated measure of two-way ANOVA.

Compound	relative translation accuracy with the translation accuracy of the control defined as 1 [1]	blood glucose level after glucose administration [3]	improvement of translation accuracy as compared with the control (in words) [1]	other results
CNCCC(Oc1ccc(C(F)(F)F)cc1)c1ccccc1 (stereo not shown) [fluoxetine]	approximately 1.5 times	significantly decreased blood glucose level		concentration of insulin secreted into the Ringer solution ([2]; low-concentration (2.8 mM) glucose stimulation, compound at final concentration of 10 (unit uncertain)): significantly improve insulin secretion
CCc1ccc(C(=O)C(C)CN2CCCCC2)cc1 (stereo not shown) [eperisone]		significantly decreased blood glucose level		blood glucose level after glucose administration [4]: significantly decreased blood glucose level; insulin secretion under low-concentration (2.8 mM) and high-concentration (16.7 mM) glucose stimulation ([2]; compound at final concentration of 10 (unit uncertain) in Ringer solution, 30 minutes each): accelerate insulin secretion only under the high-concentration glucose stimulation; relative amount of insulin secreted compared with glibenclamide ([2]; high-concentration (16.7 mM) glucose stimulation, glibenclamide defined as 1): accelerate insulin secretion more highly than glibenclamide
elvitegravir	approximately 8 times			
CN(C)C(=N)N=C(N)N [metformin]			none of the existing therapeutic agents for diabetes were shown to significantly improve translation accuracy	
COc1ccc(Cl)cc1C(=O)NCCc1ccc(S(=O)(=O)NC(=O)NC2CCCCC2)cc1 [glibenclamide]			none of the existing therapeutic agents for diabetes were shown to significantly improve translation accuracy	
